Where a name gives a salt, the structure may show the parent alone.
Experiments:
[1] = PDR 1997 p. 564; cited from earlier work
[2] = 5 and 10 ml of water
[3] = Blood pressure / hemodynamic monitoring after urethral suppository (Example 1); conditions: rabbit, urethral suppository approx. 100 mg lidocaine

SMILES: CCN(CC)CC(=O)Nc1c(C)cccc1C [lidocaine hydrochloride]
- maximum recommended adult dose [1]: 4.5 mg/kg

SMILES: CCN(CC)CC(=O)Nc1c(C)cccc1C [lidocaine]
- effect of fluid volume on pH of lidocaine/sodium bicarbonate [2]: does not appear to have a major effect
- hemodynamic changes [3]: No significant hemodynamic changes
